Columns and labels:
[1] = test system: MDA-MB-436; test: Inhibition of cell proliferation in human MDA-MB-436 cells assessed as PARP trapping effect; assay type: functional, cell-based
[2] = biological target: Poly [ADP-ribose] polymerase 1 (Homo sapiens, UniProt P09874); test: Inhibition of PARP1 (unknown origin) in presence of DNA and substrate by chemiluminescent assay
[3] = test system: MCF7; test: Inhibition of cell proliferation in human MCF7 cells; assay type: functional, cell-based
[4] = Inhibition of cell proliferation in HUVECs; assay type: toxicity, cell-based; conditions: human, HUVEC cells

Sequence of Poly [ADP-ribose] polymerase 1 (P09874 whole entry): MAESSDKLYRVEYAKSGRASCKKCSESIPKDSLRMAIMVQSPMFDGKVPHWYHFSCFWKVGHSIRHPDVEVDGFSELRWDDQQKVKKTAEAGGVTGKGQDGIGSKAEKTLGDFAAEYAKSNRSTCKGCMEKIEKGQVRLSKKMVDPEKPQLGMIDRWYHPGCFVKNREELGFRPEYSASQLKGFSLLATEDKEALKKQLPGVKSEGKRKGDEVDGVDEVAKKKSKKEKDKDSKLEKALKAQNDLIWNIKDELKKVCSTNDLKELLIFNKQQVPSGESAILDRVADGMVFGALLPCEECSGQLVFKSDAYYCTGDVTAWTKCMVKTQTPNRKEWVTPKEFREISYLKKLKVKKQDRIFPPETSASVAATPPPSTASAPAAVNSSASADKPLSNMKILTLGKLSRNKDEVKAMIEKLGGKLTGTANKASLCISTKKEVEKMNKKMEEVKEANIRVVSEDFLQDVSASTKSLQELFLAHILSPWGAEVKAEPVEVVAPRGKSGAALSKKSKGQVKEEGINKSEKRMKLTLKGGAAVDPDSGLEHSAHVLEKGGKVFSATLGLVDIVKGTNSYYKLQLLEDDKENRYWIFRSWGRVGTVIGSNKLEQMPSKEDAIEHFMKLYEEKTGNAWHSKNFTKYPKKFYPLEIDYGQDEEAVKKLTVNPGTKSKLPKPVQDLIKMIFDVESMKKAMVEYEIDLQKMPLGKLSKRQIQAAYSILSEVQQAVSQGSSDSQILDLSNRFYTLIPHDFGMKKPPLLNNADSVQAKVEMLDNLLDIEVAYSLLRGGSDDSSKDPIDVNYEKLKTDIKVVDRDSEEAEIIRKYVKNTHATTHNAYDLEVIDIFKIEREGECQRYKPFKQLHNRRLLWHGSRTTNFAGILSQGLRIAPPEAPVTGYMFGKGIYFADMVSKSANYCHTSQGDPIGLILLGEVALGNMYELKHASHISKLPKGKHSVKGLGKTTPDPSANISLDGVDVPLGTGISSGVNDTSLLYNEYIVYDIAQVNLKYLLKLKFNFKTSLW

| IC50 ([1]; Homo sapiens, MDA-MB-436) [µM] | IC50 [2] [nM] | IC50 ([3]; Homo sapiens, MCF7) [µM] | Structure (SMILES) | IC50 [4] [µM] | IC50 ([1]; mda-mb-436) [µM] | IC50 ([3]; mcf7) [µM] |
| --- | --- | --- | --- | --- | --- | --- |
| > 100 | 54.1 | > 100 | NC(=O)c1cccc2[nH]c(-c3ccc(C(=O)N4CCN(C(=O)c5ccco5)CC4)cc3)nc12 | > 100 |  |  |
| > 100 | 4.62 | > 100 | NC(=O)c1cccc2[nH]c(-c3ccc(C(=O)N4CCN(C(=O)c5csc(Br)n5)CC4)cc3)nc12 | > 100 |  |  |
| 16.4 |  | > 100 | NC(=O)c1cccc2[nH]c(-c3ccc(C(=O)NC4CCN(c5ccc(Br)o5)C4)c(F)c3)nc12 (stereo unspecified) | > 100 |  |  |
| > 100 | 84.6 | > 100 | Cn1cncc1C(=O)N1CCN(C(=O)c2ccc(-c3nc4c(C(N)=O)cccc4[nH]3)cc2)CC1 | > 100 |  |  |
| 21.8 | 6.85 | > 100 | CC1CN(C(=O)c2ccc(-c3nc4c(C(N)=O)cccc4[nH]3)cc2F)CCN1C(=O)c1ccc(Cl)o1 (stereo unspecified) | 47.8 |  |  |
| > 100 | 45.6 | > 100 | Cn1cccc1C(=O)N1CCN(C(=O)c2ccc(-c3nc4c(C(N)=O)cccc4[nH]3)cc2)CC1 | > 100 |  |  |
| 20.5 | 9 | > 100 | NC(=O)c1cccc2[nH]c(-c3ccc(C(=O)NC4CCN(c5ccco5)C4)c(F)c3)nc12 (stereo unspecified) | 67.1 |  |  |
| 14.9 |  | > 100 | CC1CN(C(=O)c2ccc(-c3nc4c(C(N)=O)cccc4[nH]3)cc2F)CCN1C(=O)c1ccc(Br)o1 (stereo unspecified) | 52.6 |  |  |
| 9.09 | 5.18 | > 100 | Cc1ccoc1C(=O)N1CCN(C(=O)c2ccc(-c3nc4c(C(N)=O)cccc4[nH]3)cc2F)CC1C (stereo unspecified) | 85.3 |  |  |
| 17.3 | 5.72 | > 100 | Cc1ccc(C(=O)N2CCN(C(=O)c3ccc(-c4nc5c(C(N)=O)cccc5[nH]4)cc3F)CC2C)o1 (stereo unspecified) | > 100 |  |  |
| > 100 | 50.6 | > 100 | NC(=O)c1cccc2[nH]c(-c3ccc(C(=O)N4CCN(C(=O)c5ccccn5)CC4)cc3)nc12 | > 100 |  |  |
| 7.6 | 4.38 | > 100 | NC(=O)c1cccc2[nH]c(-c3ccc(C(=O)NC4CCN(c5ccc(Cl)o5)C4)c(F)c3)nc12 (stereo unspecified) | > 100 |  |  |
| > 100 | 32.4 | > 100 | NC(=O)c1cccc2[nH]c(-c3ccc(C(=O)N4CCN(C(=O)c5ccco5)CC4)c(F)c3)nc12 | > 100 |  |  |
| 23.9 |  | > 100 | O=C(c1cc(Cc2n[nH]c(=O)c3ccccc23)ccc1F)N1CCN(C(=O)C2CC2)CC1 [OLAPARIB] | > 100 |  |  |
|  |  |  | C[C@]1(c2nc3c(C(N)=O)cccc3[nH]2)CCCN1 [VELIPARIB] | > 100 | > 100 | > 100 |
